Patent publication US8022072B2, “Azolylmethylidenehydrazine derivative and use thereof” (Kaken Pharmaceutical Co., Ltd., priority 2007, dated 2011)
Converted amounts (≈) assume the structure as drawn.

Legend:
Type in all cases: cell-based
[1] = test system: Trichophyton mentagrophytes SM-110; assay: Antifungal activity evaluation test, MIC, Trichophyton mentagrophytes SM-110; details: SM110, 168 h, Sabouraud Dextrose Broth, 30° C., 7 days, visual, read-out: MIC T. men. SM-110
Method: (§1) The minimum inhibitory concentration (MIC) for Trichophyton mentagrophytes, Trichophyton rubrum, and Malassezia furfur was measured according to the following procedure. • Test compound solution: A test compound was dissolved in dimethyl sulfoxide (DMSO) at a concentration of 5 mg/mL as a stock solution. […] Then, as a test medium, a fungal solution of Trichophyton species was 100-fold diluted with Sabouraud Dextrose Broth (Difco), and a fungal solution of Malassezia furfur IFO-0656 was 100-fold diluted with MU medium to give each inoculum (2×10^4 cells/mL). • Measurement of MIC of Trichophyton fungi: Sabouraud Dextrose Broth (Difco) was dispensed by 100 μL to a given well of a 96 well flat microplate. Then, a test compound solution (2 μL) was added, and the mixture was thoroughly mixed with a plate mixer. A fungal solution (100 μL) was inoculated and cultured at 30° C. for 7 days. The presence or absence of the cell growth was visually observed, and the minimum medicament concentration at which the cell growth was prevented was taken as MIC (μg/mL). • Measurement of MIC of Malassezia furfur: Since the urease activity of this fungus and the fungus growth rate are co-related, MIC was evaluated by the following method using urease activity as an index. MU medium was dispensed by 100 μL to a given well of a 96 well flat microplate. Then, a test compound solution (2 μL) was added, and the mixture was thoroughly mixed with a plate mixer. A fungal solution (100 μL) was inoculated and cultured at 30° C. The culture was stopped on day 4 or 5 of culture when the color tone of the MU medium changes from yellow to red in visual observation of the fungus growth in a well free of addition of a test substance. Then the plate was stirred until the fungus became uniform, and the urease activity was measured based on the measurement of absorbance at 550 nm using a plate reader.

[2] = test system: Malassezia furfur IFO-0656; assay: Antifungal activity evaluation test, MIC by urease activity, Malassezia furfur IFO-0656; details: IFO0656, 96 h, MU medium, 30° C., day 4 or 5, urease activity of 20% or below, read-out: MIC M. fur. IFO-0656
Method: as §1

[3] = test system: Trichophyton rubrum KD-107; assay: Antifungal activity evaluation test, MIC, Trichophyton rubrum KD-107; details: KD107, 168 h, Sabouraud Dextrose Broth, 30° C., 7 days, visual, read-out: MIC T. rub. KD-107
Method: as §1

[4] = test system: Trichophyton mentagrophytes KD-04; assay: Antifungal activity evaluation test, MIC, Trichophyton mentagrophytes KD-04; details: KD04, 168 h, Sabouraud Dextrose Broth, 30° C., 7 days, visual, read-out: MIC T. men. KD-04
Method: as §1

[5] = test system: Trichophyton mentagrophytes KD-04; assay: Influence of keratin addition on anti-Trichophyton activity; details: for MIC: Trichophyton mentagrophytes, KD04, 168 h, 30° C., 7 days; for MIC increase by the addition of keratin to medium: Trichophyton, text summary of Table 4
Method: The MIC increase rate by the addition of keratin to a medium was measured by the following procedure. • Test compound solution: A test compound was dissolved in dimethyl sulfoxide (DMSO) at a concentration of 5 mg/mL as a stock solution. Diluting this solution with DMSO, a 2-fold dilution series was prepared. • Test strain: Trichophyton mentagrophytes KD-04 was used. Preparation of Fungal Inoculum: the Above-Mentioned Strain was suspended in 0.05% Tween 80-containing physiological saline, and adjusted to a fungus concentration of 2×10^6 cells/mL using a counting chamber. […] The physiological saline was removed, and the mixture was further washed once with physiological saline (3 mL). The physiological saline was removed, and a test compound solution (10 μL) and Sabouraud Dextrose Broth (Difco) (500 μL) were added to keratin, and the mixture was sufficiently stirred. Then, inoculum (500 μL) of T. mentagrophytes KD-04 was added, and the mixture was cultured at 30° C. for 7 days. As a comparison control, an experiment similar to the above was performed under conditions free of keratin addition.

[6] = test system: Trichophyton rubrum KD-101; assay: Antifungal activity evaluation test, MIC, Trichophyton rubrum KD-101; details: KD101, 168 h, Sabouraud Dextrose Broth, 30° C., 7 days, visual, read-out: MIC T. rub. KD-101
Method: as §1

Structure (SMILES) | MIC [1] [µg/mL] | MIC [2] [µg/mL] | MIC [3] [µg/mL] | MIC [4] [µg/mL] | MIC ([5]; T. mentagrophytes KD-04, free of keratin addition, read-out: MIC SDB alone) [µg/mL] | MIC ([5]; T. mentagrophytes KD-04, keratin 50 mg added, read-out: MIC SDB + keratin) [µg/mL] | MIC [6] [µg/mL] | MIC increase by the addition of keratin to medium [5] [fold]
CCC(C)(C)c1ccc(CC(C)CN2C[C@@H](C)O[C@@H](C)C2)cc1 (stereo partly shown) [AMF, amorolfine, reference compound] | 0.05 (≈ 0.157 µM) | 0.05 (≈ 0.157 µM) | 0.025 (≈ 0.0787 µM) | 0.1 (≈ 0.315 µM) | 0.05 (≈ 0.157 µM) | 0.39 | 0.025 (≈ 0.0787 µM) | 
CC(C)Oc1ccccc1C(=NN(C)C)n1ccnc1 [Compound No. 19, N′-[1-imidazol-1-yl-1-(2-isopropoxyphenyl)methylidene]-N,N-dimethylhydrazine] | 0.2 (≈ 0.734 µM) | 25 (≈ 91.8 µM) | 0.2 (≈ 0.734 µM) | 0.2 (≈ 0.734 µM) |  |  | 0.78 (≈ 2.86 µM) | 
CCCCCOc1ccc(F)cc1C(=NN(C)C)n1ccnc1 [Compound No. 25, N′-[1-(3-fluoro-6-pentyloxyphenyl)-1-imidazol-1-ylmethylidene]-N,N-dimethylhydrazine] | 0.1 (≈ 0.314 µM) | 0.39 (≈ 1.22 µM) | 0.05 (≈ 0.157 µM) | 0.05 (≈ 0.157 µM) |  |  | 0.05 (≈ 0.157 µM) | 
CN(C)N=C(c1ccccc1OCc1ccccc1)n1ccnc1 [Compound No. 34, N′-[1-(2-benzyloxyphenyl)-1-imidazol-1-ylmethylidene]-N,N-dimethylhydrazine] | 0.2 (≈ 0.624 µM) | 0.62 (≈ 1.94 µM) | 0.1 (≈ 0.312 µM) | 0.2 (≈ 0.624 µM) |  |  | 0.2 (≈ 0.624 µM) | 
COc1cccc(COc2ccccc2C(=NN(C)C)n2ccnc2)c1 [Compound No. 53, N′-[1-imidazol-1-yl-1-[2-(3-methoxybenzyloxy)phenyl]methylidene]-N,N-dimethylhydrazine] | 0.39 (≈ 1.11 µM) | 0.78 (≈ 2.23 µM) | 0.1 (≈ 0.285 µM) | 0.2 (≈ 0.571 µM) |  |  | 0.2 (≈ 0.571 µM) | 
CCCCCN(C)c1ccccc1C(=NN(C)C)n1ccnc1 [Compound No. 87, N′-[1-imidazol-1-yl-1-[2-(N-methyl-N-pentylamino)phenyl]methylidene]-N,N-dimethylhydrazine] | 0.1 (≈ 0.319 µM) | 0.78 (≈ 2.49 µM) | 0.05 (≈ 0.16 µM) | 0.05 (≈ 0.16 µM) |  |  | 0.05 (≈ 0.16 µM) | 
CCCCCOc1cccnc1C(=NN(C)C)n1ccnc1 [Compound No. 95, N′-[1-imidazol-1-yl-1-(3-pentyloxypyridin-2-yl)methylidene]-N,N-dimethylhydrazine] | 3.13 (≈ 10.4 µM) | > 25 | 0.78 (≈ 2.59 µM) | 1.56 (≈ 5.18 µM) |  |  | 1.56 (≈ 5.18 µM) | 
CCCCCCn1cccc1C(=NN(C)C)n1ccnc1 [Compound No. 104, N′-[1-(1-hexylpyrrol-2-yl)-1-imidazol-1-ylmethylidene]-N,N-dimethylhydrazine] | 0.05 (≈ 0.174 µM) | > 25 | 0.025 (≈ 0.087 µM) | 0.025 (≈ 0.087 µM) |  |  | 0.025 (≈ 0.087 µM) | 
CN(N=C(c1ccccc1Cl)n1ccnc1)c1ccc(Cl)cc1 [Compound No. 141, N-(4-chlorophenyl)-N′-[1-(2-chlorophenyl)-1-imidazol-1-ylmethylidene]-N-methylhydrazine] | 0.39 (≈ 1.13 µM) | > 10 | 0.2 (≈ 0.579 µM) | 0.2 (≈ 0.579 µM) |  |  | 0.39 (≈ 1.13 µM) | 
Fc1ccc(COc2ccccc2C(=NN2CCCC2)n2ccnc2)cc1 [Compound No. 158, [1-[2-(4-fluorobenzyloxy)phenyl]-1-imidazol-1-ylmethylidene]pyrrolidin-1-ylamine] | 0.2 (≈ 0.549 µM) | 1.56 (≈ 4.28 µM) | 0.1 (≈ 0.274 µM) | 0.2 (≈ 0.549 µM) |  |  | 0.2 (≈ 0.549 µM) | 
CCCCCOc1ccccc1C(=NN1CCCCC1)n1ccnc1 [Compound No. 173, [1-imidazol-1-yl-1-(2-pentyloxyphenyl)methylidene]piperidin-1-ylamine] | 0.2 (≈ 0.587 µM) | 0.39 (≈ 1.15 µM) | 0.1 (≈ 0.294 µM) | 0.2 (≈ 0.587 µM) |  |  | 0.1 (≈ 0.294 µM) | 
C=CCOc1ccccc1C(=NN1CCCCCC1)n1ccnc1 [Compound No. 200, homopiperidin-1-yl-[1-imidazol-1-yl-1-[2-(2-propenyloxy)phenyl]methylidene]amine] | 0.1 (≈ 0.308 µM) | 0.2 (≈ 0.616 µM) | 0.1 (≈ 0.308 µM) | 0.1 (≈ 0.308 µM) |  |  | 0.1 (≈ 0.308 µM) | 
CCCCCOc1ccc(OC)cc1C(=NN1CCCCCC1)n1ccnc1 [Compound No. 211, homopiperidin-1-yl-[1-imidazol-1-yl-1-(5-methoxy-2-pentyloxyphenyl)methylidene]amine] | 0.39 (≈ 1.01 µM) | 1.56 (≈ 4.06 µM) | 0.1 (≈ 0.26 µM) | 0.2 (≈ 0.52 µM) |  |  | 0.2 (≈ 0.52 µM) | 
c1ccc(Oc2ccccc2C(=NN2CCCCCC2)n2ccnc2)cc1 [Compound No. 212, homopiperidin-1-yl-[1-imidazol-1-yl-1-(2-phenoxyphenyl)methylidene]amine] | 0.78 (≈ 2.16 µM) | 25 (≈ 69.4 µM) | 0.39 (≈ 1.08 µM) | 0.39 (≈ 1.08 µM) |  |  | 0.78 (≈ 2.16 µM) | 
CCC(C)(C)c1ccc(CC(C)CN2C[C@@H](C)O[C@@H](C)C2)cc1 (stereo partly shown) [amorolfine, reference compound] |  |  |  |  |  |  |  | 8
CCC(C)n1ncn(-c2ccc(N3CCN(c4ccc(OCC5COC(Cn6cncn6)(c6ccc(Cl)cc6Cl)O5)cc4)CC3)cc2)c1=O (stereo not shown) [itraconazole, reference compound] |  |  |  |  |  |  |  | 512

Continued, values first:

MIC [1] [µg/mL] | MIC [2] [µg/mL] | MIC [3] [µg/mL] | MIC [4] [µg/mL] | MIC ([5]; T. mentagrophytes KD-04, free of keratin addition, read-out: MIC SDB alone) [µg/mL] | MIC ([5]; T. mentagrophytes KD-04, keratin 50 mg added, read-out: MIC SDB + keratin) [µg/mL] | MIC [6] [µg/mL] | MIC increase by the addition of keratin to medium [5] [fold] | Structure (SMILES)
0.1 (≈ 0.287 µM) | 0.2 (≈ 0.574 µM) | 0.025 (≈ 0.0717 µM) | 0.05 (≈ 0.143 µM) |  |  | 0.05 (≈ 0.143 µM) |  | CN(C)N=C(c1ccccc1OCCCc1ccccc1)n1ccnc1 [Compound No. 61, N′-[1-imidazol-1-yl-1-[2-(3-phenylpropoxy)phenyl]methylidene]-N,N-dimethylhydrazine]
0.39 (≈ 1.5 µM) | > 25 | 0.39 (≈ 1.5 µM) | 0.39 (≈ 1.5 µM) |  |  | 0.39 (≈ 1.5 µM) |  | CSc1ccccc1C(=NN(C)C)n1ccnc1 [Compound No. 79, N′-[1-imidazol-1-yl-1-(2-methylthiophenyl)methylidene]-N,N-dimethylhydrazine]
0.2 (≈ 0.546 µM) | 0.05 (≈ 0.136 µM) | 0.05 (≈ 0.136 µM) | 0.1 (≈ 0.273 µM) |  |  | 0.1 (≈ 0.273 µM) |  | CN(C)N=C(c1ccccc1SCCOc1ccccc1)n1ccnc1 [Compound No. 85, N′-[1-imidazol-1-yl-1-[2-(2-phenoxyethylthio)phenyl]methylidene]-N,N-dimethylhydrazine]
0.39 (≈ 1.11 µM) | 6.25 (≈ 17.8 µM) | 0.1 (≈ 0.285 µM) | 0.2 (≈ 0.571 µM) |  |  | 0.1 (≈ 0.285 µM) |  | CCCCCOc1ccc2ccccc2c1C(=NN(C)C)n1ccnc1 [Compound No. 93, N′-[1-imidazol-1-yl-1-(2-pentyloxynaphthalen-1-yl)methylidene]-N,N-dimethylhydrazine]
0.2 (≈ 0.522 µM) | 0.39 (≈ 1.02 µM) | 0.05 (≈ 0.131 µM) | 0.1 (≈ 0.261 µM) |  |  | 0.1 (≈ 0.261 µM) |  | CCN(CC)N=C(c1ccccc1OCc1ccc(Cl)cc1)n1ccnc1 [Compound No. 118, N′-[1-[2-(4-chlorobenzyloxy)phenyl]-1-imidazol-1-ylmethylidene]-N,N-diethylhydrazine]
0.1 (≈ 0.337 µM) | 1.56 (≈ 5.26 µM) | 0.05 (≈ 0.169 µM) | 0.05 (≈ 0.169 µM) |  |  | 0.05 (≈ 0.169 µM) |  | CCc1ccccc1C(=NN1CCCCCC1)n1ccnc1 [Compound No. 184, [1-(2-ethylphenyl)-1-imidazol-1-ylmethylidene]homopiperidin-1-ylamine]
0.2 (≈ 0.613 µM) | 0.78 (≈ 2.39 µM) | 0.1 (≈ 0.306 µM) | 0.1 (≈ 0.306 µM) |  |  | 0.2 (≈ 0.613 µM) |  | CC(C)Oc1ccccc1C(=NN1CCCCCC1)n1ccnc1 [Compound No. 198, homopiperidin-1-yl-[1-imidazol-1-yl-1-(2-isopropoxyphenyl)methylidene]amine]
